This note sets out measurements from paper PMC6862253, “Synthesis and Evaluation of Anticancer Activity of New 4-Acyloxy Derivatives of Robustic Acid” (International Journal of Molecular Sciences, 2019).

The subject of data set [1] is human leukemic cells HL-60. In words: MTS anti-proliferative assay, HL-60. Format: cell-based. Conditions: mean ± SD. On the procedure: (§1) The MTS (3-(4,5-dimethylthiazole-2-yl)-5-(3-carboxymethoxyphenyl)-2-(4-sulfophenyl)-2H- tetrazolium) (Promega, Madison, WI, USA) assay was used to determine the IC50 value for all compounds, according to [26]. We used a panel of five human carcinoma cell lines and two normal cells including HL-60, A549, SMMC-7721, HepG2, Hela, LO2 and BEAS-2B. Cells were seeded in 96-well plates at a density of 3 × 10^3–1.5 × 10^4 cells/well in 100 μL medium (DMEM or RMPI1640) and incubated for 12–24 h at 37 °C. Subsequently, cells were exposed to drugs in an additional 100 μL medium and were further incubated at 37 °C for 48 h. In brief, 100 μL MTS reagent supplement with 100 μL medium was added directly to the wells and cells were incubated at 37 °C for a minimum of 2 h. Colorimetric measurements were recorded at 492 nm. Background absorbance was corrected using triplicate sets of wells[…] containing medium only (no cells), and MTS reagent was added per experimental well. Each experiment was performed at least three times, and values in results are represented as mean ± SD.
In general terms: Tetrazolium assays rely on reduction of a dye to a coloured formazan, in cell work by metabolically active cells.

In data set [2] the test system is human non-small cell lung carcinoma cells A-549. Nature of the data set: MTS anti-proliferative assay, A-549. Format: cell-based. The note with it: mean ± SD. As for the experimental part: as §1
In data set [3] the test system is human hepatic carcinoma cells SMMC-7721. Nature of the data set: MTS anti-proliferative assay, SMMC-7721. The note with it: mean ± SD. It counts as cell-based. As for the experimental part:
as §1

Data set [4] has as its system human hepatocellular carcinoma cells HepG2. Nature of the data set: MTS anti-proliferative assay, HepG2. Format: cell-based. Conditions: mean ± SD. As for the experimental part:
as §1

The subject of data set [5] is human cervical carcinoma cells Hela. Nature of the data set: MTS anti-proliferative assay, Hela. Format: cell-based. The note with it: 48 h, mean ± SD. On the procedure: as §1
Data set [6] deals with human normal liver cells LO2. Nature of the data set: MTS cytotoxicity assay, normal LO2 cells. Conditions: mean ± SD. Format: cell-based. As for the experimental part: as §1
Data set [7] relates to human normal lung epithelial cells BEAS-2B. In words: MTS cytotoxicity assay, normal BEAS-2B cells. It counts as cell-based. The note with it: 48 h, mean ± SD. On the procedure:
as §1

The target in data set [8] is T1, DNA topoisomerase I (Topo I) (Bos taurus, UniProt F1MN93).
T1 construct: purchased Takara Bio Inc
T1 sequence (F1MN93 1-767): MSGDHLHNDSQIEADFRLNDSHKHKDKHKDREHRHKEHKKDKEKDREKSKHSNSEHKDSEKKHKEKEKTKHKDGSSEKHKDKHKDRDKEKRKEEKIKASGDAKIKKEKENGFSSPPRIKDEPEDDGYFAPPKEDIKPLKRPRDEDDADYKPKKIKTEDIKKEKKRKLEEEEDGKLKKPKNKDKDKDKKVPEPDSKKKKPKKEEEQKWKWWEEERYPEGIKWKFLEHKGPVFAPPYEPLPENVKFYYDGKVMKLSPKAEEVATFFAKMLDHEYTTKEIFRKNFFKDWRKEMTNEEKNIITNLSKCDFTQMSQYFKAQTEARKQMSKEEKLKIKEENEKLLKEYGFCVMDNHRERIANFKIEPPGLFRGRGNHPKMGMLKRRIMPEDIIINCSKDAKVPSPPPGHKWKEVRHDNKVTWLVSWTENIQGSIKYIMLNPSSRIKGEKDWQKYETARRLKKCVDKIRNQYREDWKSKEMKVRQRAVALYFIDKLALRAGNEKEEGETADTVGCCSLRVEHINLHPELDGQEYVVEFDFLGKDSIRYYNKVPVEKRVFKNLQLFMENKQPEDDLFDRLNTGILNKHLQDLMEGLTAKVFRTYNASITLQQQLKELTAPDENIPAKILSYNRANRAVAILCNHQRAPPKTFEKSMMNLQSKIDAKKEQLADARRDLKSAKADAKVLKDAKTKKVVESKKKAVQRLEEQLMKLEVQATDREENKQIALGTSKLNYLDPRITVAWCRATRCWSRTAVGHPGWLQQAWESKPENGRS
In words: Topo I inhibitory activity, supercoiled DNA unwinding, agarose gel. Format: biochemical. The text has this: DNA Topo I is an important enzyme in all living organisms, and it participates in many cellular metabolic processes, such as replication, transcription, recombination, and repair. DNA Topo I has been established as a molecular target of anticancer drugs. A combined study of synthesis and docking for the anti-cancer activity of novel coumarins concluded that coumarin derivatives are potent cytotoxic agents. […] Currently, discovering novel non-camptothecin inhibitors for DNA Topo I has become an important area of research. Thus, a DNA Topo I inhibitory activity assay was also carried out using the supercoiled DNA unwinding method in this study. […] Therefore, compounds 2d, 2g, and 2i were selected for further quantitative investigation (depicted in Figure 5B). […] This correlates well with the cytotoxicity to HL-60, A-549, and SMMC-7721 cells. Thus, we infer that the anti-proliferative activity of 4-acyloxy derivatives of RA to these three cells may be related to Topo I. Supercoiled […] DNA was used as a substrate to determine the Topo I catalytic activity. Commercial samples of Topo I and pBR322 were obtained from Takara Bio Inc. The buffer solutions were prepared using 500 mM KAc, 200 mM Tris-Ac, 100 mM Mg(Ac)2, and 1 mg/mL BSA. The procedure used for determination of enzyme inhibitory activity was similar to one reported by Xu et al..

`CCc1ccc(C(=O)Oc2c(-c3ccc(OC)cc3)c(=O)oc3c2=C(OC)C2C=CC(C)(C)OC2C=3)cc1` (centres unmarked) [Compound 2h, 4-O-(p-Ethylbenzoyl)robustic acid]: the melting point was in the range of 246.9 to 250.2 °C.
Turning to `COC1=c2c(OC(=O)c3ccc(Br)cc3F)c(-c3ccc(OC)cc3)c(=O)oc2=CC2OC(C)(C)C=CC12` (centres unmarked) [Compound 2i, 4-O-(4-Bromo-2-fluorobenzoyl) robustic acid], the melting point lay in the range of 250.8 to 251.9 °C.
Take `COC1=c2c(OC(=O)c3ccc([N+](=O)[O-])cc3)c(-c3ccc(OC)cc3)c(=O)oc2=CC2OC(C)(C)C=CC12` (centres unmarked) [Compound 2g, 4-O-(p-Nitrobenzoyl)robustic acid]: the melting point lay within 239.5 to 241.9 °C.
As to `COc1ccc(-c2c(OC(=O)c3ccc(F)cc3)c3c(OC)c4c(cc3oc2=O)OC(C)(C)C=C4)cc1` [Compound 2f, 4-O-(p-Fluorobenzoyl)robustic acid], the melting point lay within 236.8 to 239.6 °C. Moreover, the IC50 in [1] (Homo sapiens, HL-60, 48 h) was over 100 µM. This molecule yielded a half-maximal inhibitory concentration (IC50) in data set [2] (Homo sapiens, A549, 48 h) of over 100 µM. Further, 66.2 ± 5.7 µM corresponded to half-maximal inhibition in data set [3] (Homo sapiens, SMMC-7721, 48 h) (IC50). The same molecule showed a half-maximal inhibitory concentration (IC50) in [4] (Homo sapiens, HepG2, 48 h) of 87.3 ± 2.14 µM. The same molecule registered an IC50 in data set [5] (Homo sapiens, HeLa) of 65.1 ± 1.27 µM. In [6] (Homo sapiens, L02, 48 h), this molecule came in with a 50% inhibitory concentration (IC50) of over 100 µM. Also, the IC50 in [7] (Homo sapiens, BEAS-2B) is over 100 µM. Moreover, in [8] (gel electrophoresis), the “Topo I inhibitory activity” value is “moderate inhibitory activities”.
Consider `COC1=c2c(OC(=O)c3ccccc3)c(-c3ccc(OC)cc3)c(=O)oc2=CC2OC(C)(C)C=CC12` (centres unmarked) [Compound 2a, 4-O-Benzoyl-robustic acid], for which the melting point was 266.4 to 273.4 °C.
With `CC[C@@]1(O)C(=O)OCc2c1cc1n(c2=O)Cc2cc3ccccc3nc2-1` [CPT, camptothecin], the IC50 in [1] (Homo sapiens, HL-60, 48 h) is 12.2 ± 1.06 µM; in data set [2] (Homo sapiens, A549, 48 h), 15.3 ± 1.22 µM; in data set [3] (Homo sapiens, SMMC-7721, 48 h), 18.9 ± 4.12 µM; in [4] (Homo sapiens, HepG2, 48 h), 1.3 ± 0.62 µM; in [5] (Homo sapiens, HeLa), 0.5 ± 0.08 µM; in data set [6] (Homo sapiens, L02, 48 h), 0.03 ± 0.002 µM. This molecule displayed a concentration for half-maximal inhibition (IC50) in data set [7] (Homo sapiens, BEAS-2B) of 2.16 ± 0.47 µM.
`COC1=c2c(OC(=O)c3ccc(C(F)(F)F)cc3)c(-c3ccc(OC)cc3)c(=O)oc2=CC2OC(C)(C)C=CC12` (centres unmarked) [Compound 2d, 4-O-(p-Trifluoromethylbenzoyl)robustic acid]: the melting point lay in the range of 225.6 to 228.5 °C.
On to `COC1=c2c(OC(C)=O)c(-c3ccc(OC)cc3)c(=O)oc2=CC2OC(C)(C)C=CC12` (centres unmarked) [Compound 2j, 4-O-Acetylrobustic acid], for which the melting point was in the range of 189.9 to 192.1 °C.
Take `COc1ccc(-c2c(O)c3c(OC)c4c(cc3oc2=O)OC(C)(C)C=C4)cc1` [RA, robustic acid]: the IC50 was over 100 µM in [1] (Homo sapiens, HL-60, 48 h); over 100 µM in data set [2] (Homo sapiens, A549, 48 h); over 100 µM in data set [3] (Homo sapiens, SMMC-7721, 48 h); over 100 µM in [4] (Homo sapiens, HepG2, 48 h); over 100 µM in data set [5] (Homo sapiens, HeLa); over 100 µM in [6] (Homo sapiens, L02, 48 h). The same molecule yielded an IC50 in data set [7] (Homo sapiens, BEAS-2B) of over 100 µM. Moreover, in data set [8] (concentrations lower than 10 mM), the “Topo I inhibitory activity” value was “no inhibitory activity was found”.
The molecule `COC1=c2c(OC(=O)c3cccs3)c(-c3ccc(OC)cc3)c(=O)oc2=CC2OC(C)(C)C=CC12` (centres unmarked) [Compound 2e, 4-O-Thenoyl robustic acid] returned a melting point of 171.5 to 182.3 °C.
For the molecule `N.N.[Cl][Pt][Cl]` [cisplatin], the IC50 in [1] (48 h) was 14.2 ± 0.56 µM; in data set [2] (48 h) it was 25.4 ± 1.06 µM; in data set [3] (48 h), 1.32 ± 0.97 µM; in data set [4] (48 h), 10.6 ± 1.4 µM; in data set [5] it was 5.83 ± 0.14 µM; in [6] (48 h) it was under 0.008 µM. In addition, half-maximal inhibition in data set [7] (IC50) was put at 57.7 ± 3.1 µM.

As a reminder, the melting point is the temperature, or range, at which the solid turns liquid. By IC50 is commonly meant the concentration that inhibits the measured activity by half.
